Assay results: patent US20180149652A1, “ELECTRICAL CELL-SUBSTRATE IMPEDANCE SENSOR (ECIS)” (priority 2018, published 2018)

Experiments:
[1] = test system: MCF-7 cells; experiment: SiNW-ECIS impedance and capacitance response of MCF-7 cells to antitubulin drugs; assay type: cell-based, human; conditions: MCF-7 on SiNW electrodes, PTX 0.1 nano-moles per liter; for normalized capacitance change versus control sample / normalized impedance change versus control sample: 2 hours (T1) after drug incubation; for normalized capacitance change versus control sample / normalized impedance change versus control sample / change in electrical impedance with respect to control sample / norm of capacitive changes, control sample more than drug value / change of norm in impedance of treated cells, T1 vs. T2: ABZ 2.1 nano-moles per liter; for change in electrical impedance with respect to control sample / norm of capacitive changes, control sample more than drug value: 6 hours (T2) after drug incubation
Experimental: In this example, the diagnostic response of cells membrane to extremely low dose of antitubulin drugs is investigated. Initially, MCF-7 cell lines, isolated from grade I human breast tumors, were obtained from the National Cell Bank of Iran (Pasteur Institute). Then, cells were maintained in a CO2 incubator (37° C., 5% CO2) in RPMI-1640 medium supplemented with 5% fetal bovine serum, and 1% penicillin/streptomycin. The fresh medium was replaced every other day. Then, the cultured cells were dropped on the surface of the SiNW-ECIS, designed and fabricated pursuant to teachings of the present application. Prior to each experiment, cells were trypsinized to be detached from the substrate and resuspended on the SiNW surface. To minimize the effect of trypsinization, the procedure may last for less than 4 minutes at room temperature of about 20° C. The samples were held in an incubator for about 4 hours to achieve cells attachment on the SiNWs. Thereafter, the ABZ drug with low concentrations of about 2.1 nano-moles per liter and the PTX drug with low concentrations of about 0.1 nano-moles per liter were added to individual samples. Finally, the signal recording and biological assays were investigated about 2 hours and 6 hours after the drug treatment (6 hours and 10 hours after the beginning of culturing process).
Referring to FIGS. 12A-12G, comparative normalized diagrams of impedance (designated by ΔZ% and represented by solid black lines) and capacitance changes (designated by ΔC% and represented by dashed grey lines) are illustrated for MCF-7 cells seeded on SiNW electrodes after treating by 2.1 nano-moles per liter of ABZ and 0.1 nano-moles per liter of PTX. The time interval between the drug incubation and the signal extraction are 2 hours (designated by T1) and 6 hours (designated by T2). In addition, the same diagrams are plotted for control sample prepared with no drug treatment stage.
According to the method described in the present example, the samples were maintained in an incubator so that the signal extraction was repeated 10 hours after cells dropping (6 hours after drug incubation for treated samples) to monitor the time evolution of drug induced MT polymerization/depolymerization on bioelectrical response of the membrane.

[2] = test system: tubulin assemblies of MCF-7 cells; experiment: Confocal microscopy of tubulin assemblies of MCF-7 cells; assay type: cell-based, human; conditions: ABZ 2.1 nano-moles per liter, PTX 0.1 nano-moles per liter
Experimental: In addition, an un-treated control sample was prepared as reference for comparison. Then, samples were washed with PBS and permeabilized with microtubule stabilizing buffer [80 mM PIPES-KOH (pH 6.8), 5 mM EGTA, and 1 mM MgCl2 containing 0.5% Triton X-100] for 5 min at room temperature before being fixed with chilled absolute methanol for 10 min at −20° C. Thereafter, the fixed cells were washed and incubated with monoclonal mouse anti-α-tubulin antibody (Sigma Co.) for 1 hour at room temperature followed by incubation with FITC-conjugated antimouse IgG antibody (Santa Cruz Biotechnology). The stained cells were mounted with Vectashield (Vector Laboratories, Burlingame, Calif.) and observed by confocal microscopy.

[3] = between 2 hours (T1) and 6 hours (T2) after drug incubation

SMILES	normalized capacitance change versus control sample [1]	normalized impedance change versus control sample [1]	change in electrical impedance with respect to control sample [1]	norm of capacitive changes, control sample more than drug value [1]	change of norm in impedance of treated cells, T1 vs. T2 [1, 3]	spindle / microtubule appearance in confocal image ([2]; MCF-7, 2 hours after treatment)	spindle / microtubule appearance in confocal image ([2]; MCF-7, 6 hours after treatment)	time dependent variation in capacitive behavior, T1 vs. T2 [1, 3]
CCCSc1ccc2nc(NC(=O)OC)[nH]c2c1 [ABZ, Albendazole]	70%	25%	about 90%	about 90%	about 60%	abnormally reduced numbers of spindles or monopolar (monoaster) spindles	still the monoastered MTs are observable	–
CC(=O)O[C@H]1C(=O)[C@@]2(C)[C@H]([C@H](OC(=O)c3ccccc3)[C@]3(O)C[C@H](OC(=O)[C@H](O)[C@@H](NC(=O)c4ccccc4)c4ccccc4)C(C)=C1C3(C)C)[C@]1(OC(C)=O)CO[C@@H]1C[C@@H]2O [PTX, Paclitaxel]	about 60%	about 50%	about 30%	~75%	15%	aggregated spindles	increased aggregation in MT spindles is noticeable	about 85%
